Test results as given in article PMC12044458 (ACS Omega, 2025).

Columns and labels:
[1] = system: Poly(I:C) HMW (RNA, polymer, hypoxanthine (inosine) in place of every G of strand 1 (polyinosinic acid)) G/C; assay: UV melting; details: PBS, 0 mM Mg2+, derived from two Tm (67 and 67), compound concentration not in material, per base
[2] = system: Poly(I:C) Na^+ (RNA, polymer, hypoxanthine (inosine) in place of every G of strand 1 (polyinosinic acid)) G/C; assay: UV melting; details: PBS, 0 mM Mg2+, derived from two Tm (64 and 65), compound concentration not in material, per base

SMILES: CN(C)[C@@H]1C(=O)C(C(N)=O)=C(O)[C@@]2(O)C(=O)C3=C(O)c4c(O)cccc4[C@@](C)(O)[C@H]3C[C@@H]12
- melting temperature shift (ΔTm) [1]: 0 °C
- melting temperature shift (ΔTm) [2]: -1 °C
